In patent US20240050576A1, “METHODS AND COMPOUNDS FOR THE TREATMENT OF GENETIC DISEASE” (Design Therapeutics, Inc., priority 2020, published 2024):

Tested on: human FXN
Assay: FXN mRNA expression by qRT-PCR in GM15850 cells after 48 hr compound treatment
Format: cell-based
Conditions: GM15850 cells, 48 hr incubation, hFXN normalized to hGAPDH; read-out: EC50 WT (nM, 48 hr)
Method: Cell culture: Cells were cultured in RPMI1640 medium+15% FBS. Cells were maintained at a density between 2e5/mL and 1e6/mL. Cells were centrifuged, resuspended in fresh medium, counted and plated at 150,000 cells per well in 100 uL in a non-coated, flat bottom tissue culture plate.
Compound treatment: 10 mM stock solution of FA GeneTAC was diluted 1:10 in DMSO followed by a 1:100 dilution in growth medium. […] Compound was then diluted at a 1:3 ratio into growth medium containing 0.01% DMSO. 5-point, 3-fold dose response curve was generated. 11 μL of 10× compound was added to wells containing 100 μL cell suspension of GM15850. 11 μL growth medium containing 0.01% DMSO was added to all wells not treated with FA GeneTAC. Cells were allowed to incubate for 48 hrs prior to cell lysis using guanidine isothiocyanate solution.
RNA isolation: Total RNA was isolated and purified in 384-well column filter plates using chaotropic salt.
qRT-PCR: qRT-PCR reactions were assembled using AgPath-ID reagents (Thermo Fisher) using 6 uL mastermix and 4 μL RNA. qRT-PCR TaqMan primer probe sets against human FXN (Assay ID Hs01075496_m1) and human GAPDH (Assay ID Hs00266705_g1) were used to measure the intended targets. qRT-PCR was run on the ThermoFisher QuantStudio 6 PRO instrument using the manufacturer's recommended cycling conditions.
Data analysis: qPCR data was analyzed using Thermo Fisher Design and Analysis software. Data was exported to Excel and hFXN expression was normalized to hGAPDH expression.

Row | Structure (SMILES) | EC50
1 | CC(=O)N1c2ccc(C3=CCN(C(=O)COCCOCCOCCOCCOCCC(=O)NCCCN(C)CCCNC(=O)CCNC(=O)c4nc(NC(=O)CCNC(=O)c5cc(NC(=O)c6nc(NC(=O)CCNC(=O)c7cc(NC(=O)c8nccn8C)cn7C)cn6C)cn5C)cn4C)CC3)cc2N(Cc2ccccc2CO)C[C@@H]1C1CC1 [Compound 29] | 100 to 500 nM

Same assay, conditions: Homo sapiens; GM15850 cells, 48 hr incubation, hFXN normalized to hGAPDH; read-out: EC50 WT (nM, 48 hr)

Row | Structure (SMILES) | EC50
2 | CC(=O)N1c2ccc(-c3cnc(C(=O)NCCOCCOCCOCCOCCOCCOCCOCCOCCNC(=O)CCNC(=O)c4nc(NC(=O)CCNC(=O)c5cc(NC(=O)c6nc(NC(=O)CCNC(=O)c7cc(NC(=O)c8nccn8C)cn7C)cn6C)cn5C)cn4C)nc3)cc2N(Cc2ccccc2CO)C[C@@H]1C1CC1 [Compound 48, N-(5-[[2-([2-[(2-[[26-([5-[(2S)-1-acetyl-2-cyclopropyl-4-[[2-(hydroxymethyl)phenyl]methyl]-2,3-dihydroquinoxalin-6-yl]pyrimidin-2-yl]formamido)-3,6,9,12,15,18,21,24-octaoxahexacosan-1-yl]carbamoyl]ethyl)carbamoyl]-1-methylimidazol-4-yl]carbamoyl)ethyl]carbamoyl]-1-methylpyrrol-3-yl)-1-methyl-4-(3-[[1-methyl-4-(1-methylimidazole-2-amido)pyrrol-2-yl]formamido]propanamido)imidazole-2-carboxamide] | > 500 nM
3 | Cc1sc2c(c1C)C(c1ccc(Cl)cc1)=N[C@@H](CC(=O)Nc1ccc(OCCOCCOCCOCCOCCOCCOCCOCCOCCNC(=O)CCNC(=O)c3nc(NC(=O)CCNC(=O)c4cc(NC(=O)c5nc(NC(=O)CCNC(=O)c6cc(NC(=O)c7nccn7C)cn6C)cn5C)cn4C)cn3C)nc1)c1nnc(C)n1-2 [Compound 102] | < 100 nM
4 | Cc1noc(C)c1-c1cnc2c(-c3ccc(C(=O)NCCOCCOCCOCCOCCOCCC(=O)NCCCN(C)CCCNC(=O)CCNC(=O)c4nc(NC(=O)CCNC(=O)c5cc(NC(=O)c6nc(NC(=O)CCNC(=O)c7cc(NC(=O)c8nccn8C)cn7C)cn6C)cn5C)cn4C)cc3)cn([C@@H](C)c3ccccn3)c2c1 [Compound 8] | < 100 nM
5 | Cc1sc2c(c1C)C(c1ccc(Cl)cc1)=N[C@@H](CC(=O)Nc1cccc(OCCOCCOCCOCCOCCOCCOCCOCCOCCNC(=O)CCNC(=O)c3nc(NC(=O)CCNC(=O)c4cc(NC(=O)c5nc(NC(=O)CCNC(=O)c6cc(NC(=O)c7nccn7C)cn6C)cn5C)cn4C)cn3C)c1)c1nnc(C)n1-2 [Compound 65] | 100 to 500 nM
6 | CC(=O)N1c2ccc(C3=CCN(C(=O)COCCOCCOCCOCCOCCOCCOCCOCCNC(=O)CCNC(=O)c4nc(NC(=O)CCNC(=O)c5cc(NC(=O)c6nc(NC(=O)CCNC(=O)c7cc(NC(=O)c8nccn8C)cn7C)cn6C)cn5C)cn4C)CC3)cc2N(Cc2ccccc2CO)C[C@@H]1C1CC1 [Compound 46] | 100 to 500 nM
7 | Cc1sc2c(c1C)C(c1ccc(Cl)cc1)=N[C@@H](CC(=O)Nc1ccc(OCCOCCOCCOCCOCCOCCC(=O)NCCCN(C)CCCNC(=O)c3cc(NC(=O)c4nc(NC(=O)CCNC(=O)c5cc(NC(=O)c6nc(NC(=O)CCNC(=O)c7cc(NC(=O)c8nccn8C)cn7C)cn6C)cn5C)cn4C)cn3C)cc1)c1nnc(C)n1-2 [Compound 16] | 100 to 500 nM
8 | Cc1sc2c(c1C)C(c1ccc(Cl)cc1)=N[C@@H](CC(=O)Nc1ccc(OCCOCCOCCOCCOCCOCCOCCOCCC(=O)NCCCN(C)CCCNC(=O)c3cc(NC(=O)c4nc(NC(=O)CCNC(=O)c5cc(NC(=O)c6nc(NC(=O)CCNC(=O)c7cc(NC(=O)c8nccn8C)cn7C)cn6C)cn5C)cn4C)cn3C)cc1)c1nnc(C)n1-2 [Compound 56] | 100 to 500 nM
9 | Cc1sc2c(c1C)C(c1ccc(Cl)cc1)=N[C@@H](CC(=O)Nc1ccc(OCCOCCOCCOCCOCCOCCC(=O)NCCCOCCCNC(=O)CCNC(=O)c3nc(NC(=O)CCNC(=O)c4cc(NC(=O)c5nc(NC(=O)CCNC(=O)c6cc(NC(=O)c7nccn7C)cn6C)cn5C)cn4C)cn3C)cc1)c1nnc(C)n1-2 [Compound 58] | < 100 nM
10 | CC(=O)N1c2ccc(-c3cnc(C(=O)NCCOCCOCCOCCOCCOCCC(=O)NCCCN(C)CCCNC(=O)CCNC(=O)c4nc(NC(=O)CCNC(=O)c5cc(NC(=O)c6nc(NC(=O)CCNC(=O)c7cc(NC(=O)c8nccn8C)cn7C)cn6C)cn5C)cn4C)nc3)cc2N(Cc2ccccc2CO)C[C@@H]1C1CC1 [Compound 30] | > 500 nM
11 | Cc1sc2c(c1C)C(c1ccc(Cl)cc1)=N[C@@H](CC(=O)Nc1ccc(OCCOCCOCCOCCOCCOCCNC(=O)CCNC(=O)c3nc(NC(=O)CCNC(=O)c4cc(NC(=O)c5nc(NC(=O)CCNC(=O)c6cc(NC(=O)c7nccn7C)cn6C)cn5C)cn4C)cn3C)cc1)c1nnc(C)n1-2 [Compound 21] | 100 to 500 nM
12 | Cc1sc2c(c1C)C(c1ccc(Cl)cc1)=N[C@@H](CC(=O)Nc1cncc(OCCOCCOCCOCCOCCOCCOCCOCCOCCNC(=O)CCNC(=O)c3nc(NC(=O)CCNC(=O)c4cc(NC(=O)c5nc(NC(=O)CCNC(=O)c6cc(NC(=O)c7nccn7C)cn6C)cn5C)cn4C)cn3C)c1)c1nnc(C)n1-2 [Compound 103] | < 100 nM
13 | COc1ccc2c(c1)C(c1ccc(Cl)cc1)=N[C@H](CC(=O)Nc1ccc(OCCOCCOCCOCCOCCOCCOCCOCCOCCNC(=O)CCNC(=O)c3nc(NC(=O)CCNC(=O)c4cc(NC(=O)c5nc(NC(=O)CCNC(=O)c6cc(NC(=O)c7nccn7C)cn6C)cn5C)cn4C)cn3C)cc1)c1nnc(C)n1-2 [Compound 26] | 100 to 500 nM
14 | Cc1sc2c(c1C)C(c1ccc(Cl)cc1)=N[C@@H](CC(=O)Nc1ccc(OCCOCCOCCOCCOCCOCCC(=O)NCCCN(C)CCCNC(=O)CCNC(=O)c3nc(NC(=O)CCNC(=O)c4cc(NC(=O)c5nc(NC(=O)CCNC(=O)c6cc(NC(=O)c7nccn7C)cn6C)cn5C)cn4C)cn3C)cc1)c1nnc(C)n1-2 [Compound 3] | 100 to 500 nM
15 | Cc1sc2c(c1C)C(c1ccc(Cl)cc1)=N[C@@H](CC(=O)Nc1ccc(CCCOCCOCCOCCOCCOCCC(=O)NCCCN(C)CCCNC(=O)CCNC(=O)c3nc(NC(=O)CCNC(=O)c4cc(NC(=O)c5nc(NC(=O)CCNC(=O)c6cc(NC(=O)c7nccn7C)cn6C)cn5C)cn4C)cn3C)cc1)c1nnc(C)n1-2 [Compound 60] | 100 to 500 nM
16 | CCCNC(=O)CCNC(=O)c1nc(NC(=O)CCNC(=O)c2cc(NC(=O)c3nc(NC(=O)CCNC(=O)c4cc(NC(=O)c5nc(NC(=O)COCCOCCOCCOCCOCCOCCOCCOCCOc6ccc(NC(=O)C[C@@H]7N=C(c8ccc(Cl)cc8)c8c(sc(C)c8C)-n8c(C)nnc87)cc6)cn5C)cn4C)cn3C)cn2C)cn1C [Compound 50] | < 100 nM
17 | Cc1sc2c(c1C)C(c1ccc(Cl)cc1)=N[C@@H](CC(=O)Nc1ccc(OCCOCCOCCOCCOCCOCCOCCOCCNC(=O)CCNC(=O)c3nc(NC(=O)CCNC(=O)c4cc(NC(=O)c5nc(NC(=O)CCNC(=O)c6cc(NC(=O)c7nccn7C)cn6C)cn5C)cn4C)cn3C)cc1)c1nnc(C)n1-2 [Compound 23] | 100 to 500 nM
18 | CC(=O)N1c2ccc(-c3ccc(C(=O)NCCOCCOCCOCCOCCOCCOCCOCCOCCNC(=O)c4cc(NC(=O)c5nc(NC(=O)CCNC(=O)c6cc(NC(=O)c7nc(NC(=O)CCNC(=O)[C@H](CCCNC(=N)N)NC(=O)[C@@H](N)CCCNC(=N)N)cn7C)cn6C)cn5C)cn4C)cc3)cc2[C@H](Nc2ccc(Cl)cc2)C[C@@H]1C [Compound 75] | > 500 nM
19 | COc1ccc2c(c1)C(c1ccc(Cl)cc1)=N[C@H](CC(=O)Nc1ccc(OCCOCCOCCOCCOCCOCCC(=O)NCCCN(C)CCCNC(=O)CCNC(=O)c3nc(NC(=O)CCNC(=O)c4cc(NC(=O)c5nc(NC(=O)CCNC(=O)c6cc(NC(=O)c7nccn7C)cn6C)cn5C)cn4C)cn3C)cc1)c1nnc(C)n1-2 [Compound 11] | > 500 nM
20 | CC(=O)N1c2ccc(C3=CCN(C(=O)COCCOCCOCCOCCOCCOCCOCCNC(=O)CCNC(=O)c4nc(NC(=O)CCNC(=O)c5cc(NC(=O)c6nc(NC(=O)CCNC(=O)c7cc(NC(=O)c8nccn8C)cn7C)cn6C)cn5C)cn4C)CC3)cc2N(Cc2ccccc2CO)C[C@@H]1C1CC1 [Compound 45] | 100 to 500 nM
21 | Cc1sc2c(c1C)C(c1ccc(Cl)cc1)=N[C@@H](CC(=O)Nc1ccc(CCCOCCOCCOCCOCCOCCOCCOCCOCCNC(=O)CCNC(=O)c3nc(NC(=O)CCNC(=O)c4cc(NC(=O)c5nc(NC(=O)CCNC(=O)c6cc(NC(=O)c7nccn7C)cn6C)cn5C)cn4C)cn3C)cc1)c1nnc(C)n1-2 [Compound 63] | < 100 nM
22 | Cc1cc(-c2nc3cnc(C4CCN(CCOCCOCCOCCOCCOCCC(=O)NCCCN(C)CCCNC(=O)CCNC(=O)c5nc(NC(=O)CCNC(=O)c6cc(NC(=O)c7nc(NC(=O)CCNC(=O)c8cc(NC(=O)c9nccn9C)cn8C)cn7C)cn6C)cn5C)CC4)cc3n2[C@@H](C)c2ccccc2)nn(C)c1=O [Compound 9] | 100 to 500 nM
23 | CCCNC(=O)c1nc(NC(=O)CCNC(=O)c2cc(NC(=O)c3nc(NC(=O)CCNC(=O)c4cc(NC(=O)c5nc(NC(=O)CCNC(=O)COCCOCCOCCOCCOCCOCCOCCOCCOc6ccc(NC(=O)C[C@@H]7N=C(c8ccc(Cl)cc8)c8c(sc(C)c8C)-n8c(C)nnc87)cc6)cn5C)cn4C)cn3C)cn2C)cn1C [Compound 52] | < 100 nM
24 | Cc1sc2c(c1C)C(c1ccc(Cl)cc1)=N[C@@H](CC(=O)Nc1ccc(OCCOCCOCCOCCOCCOCCOCCNC(=O)CCNC(=O)c3nc(NC(=O)CCNC(=O)c4cc(NC(=O)c5nc(NC(=O)CCNC(=O)c6cc(NC(=O)c7nccn7C)cn6C)cn5C)cn4C)cn3C)cc1)c1nnc(C)n1-2 [Compound 22] | 100 to 500 nM
